{
  "source": "patent US20260027221A1",
  "about": "“Targeted Pyrrolobenzodiazapine Conjugates” (BeOne Medicines I GmbH, priority 2023, published 2026)",
  "key": {"A375 cells": {"system": "A375 cells", "assay": "Compounds cellular killing in A375 cancer line (Cell Titer-Glo, 6 days)", "format": "cell-based, human", "settings": "6 days incubation, cell viability by Cell Titer-Glo; for EC50 / Emax: Homo sapiens, A-375, 144 h", "experimental": "(§1) A375 (ATCC, CRL-1619). […] The base medium for A375 is DMEM, high glucose, GlutaMAX™ Supplement (Gibco, 10566024). To make the complete growth medium, fetal bovine serum was added to the base mediumat a final concentration of 10% (Gibco, 10099-141C). The cell line was grown in a humidified 5% CO2 atmosphere at 37° C., and was regularly tested for the presence of mycoplasma with MycoAlert™ PLUS Mycoplasma Detection Kit (Lonza, LT07-710).\n(§2) Payload direct killing by compounds 1-1 to 1-22 was assessed in A375 and Calu-6 cancer cell lines. Cells were seeded at 1E3/well (A375) 2E3/well (Calu-6) into 96-well plates (Greiner: 655090), 100 μL/well, and incubated at 37° C., 5% CO2, overnight. Fresh growth medium was added containing varying concentrations of compounds, 50 μL/well, and incubated at 37° C., 5% CO2, for 6 days. The cell viability detected by Cell Titer-Glo (Promega, G7573), 70 μL/well. The plates were allowed to incubate at room temperature for 10 minutes to stabilize the luminescent signal. The plates were analyzed with a microplate reader."}, "Calu-6 cells": {"system": "Calu-6 cells", "assay": "Compounds cellular killing in Calu-6 cancer line (Cell Titer-Glo, 6 days)", "format": "cell-based, human", "settings": "6 days incubation, cell viability by Cell Titer-Glo; for EC50 / Emax: Homo sapiens, Calu-6, 144 h", "experimental": "as §1, with “Calu-6” for “A375”, “HTB-56).” for “CRL-1619).”, “Eagle's Minimum Essential Medium (ATCC, 30-2003).” for “DMEM, high glucose, GlutaMAX™ Supplement (Gibco, 10566024).”\nas §2"}},
  "note": "Where “and” joins values, the source holds several entries; their conditions need not be identical. Equal values may be shown once.",
  "data": [
    {"smiles": "COc1cc2c(cc1OCCCCCOc1cc3c(cc1OC)C(=O)N1CC4(CC4)C[C@H]1C=N3)N=C[C@@H]1CCCCN1C2=O", "note": "[Compound 1-16, (S)-7-methoxy-8-((5-(((S)-2-methoxy-12-oxo-6a,7,8,9,10,12-hexahydrobenzo[e]pyrido[1,2-a][1,4]diazepin-3-yl)oxy)pentyl)oxy)-1,11a-dihydro-3H,5H-spiro[benzo[e]pyrrolo[1,2-a][1,4]diazepine-2,1′-cyclopropan]-5-one]", "values": [
      {"measurement": "EC50", "setting": "A375 cells", "result": 0.146, "unit": "nM"},
      {"measurement": "Emax", "setting": "A375 cells", "result": 89.6, "unit": "%"},
      {"measurement": "EC50", "setting": "Calu-6 cells", "result": 0.038, "unit": "nM"},
      {"measurement": "Emax", "setting": "Calu-6 cells", "result": 92.3, "unit": "%"}
    ]},
    {"smiles": "COc1cc2c(cc1OCc1cccc(COc3cc4c(cc3OC)C(=O)N3CC5(CC5)C[C@H]3C=N4)n1)N=C[C@@H]1CC3(CC3)CN1C2=O", "note": "[Compound 1-17, (11aS,11a″S)-8,8″-((pyridine-2,6-diylbis(methylene))bis(oxy))bis(7-methoxy-1,11a-dihydro-3H,5H-spiro[benzo[e]pyrrolo[1,2-a][1,4]diazepine-2,1′-cyclopropan]-5-one)]", "values": [
      {"measurement": "EC50", "setting": "A375 cells", "result": 0.017, "unit": "nM"},
      {"measurement": "Emax", "setting": "A375 cells", "result": 99.9, "unit": "%"},
      {"measurement": "EC50", "setting": "Calu-6 cells", "result": 0.005, "unit": "nM"},
      {"measurement": "Emax", "setting": "Calu-6 cells", "result": 99.7, "unit": "%"}
    ]},
    {"smiles": "COc1cc2c(cc1OCc1cc(O)cc(COc3cc4c(cc3OC)C(=O)N3CC5(CC5)C[C@H]3C=N4)c1)N=C[C@@H]1CC3(CC3)CN1C2=O", "note": "[Compound 1-18, (11aS,11a″S)-8,8″-(((5-hydroxy-1,3-phenylene)bis(methylene))bis(oxy))bis(7-methoxy-1,11a-dihydro-3H,5H-spiro[benzo[e]pyrrolo[1,2-a][1,4]diazepine-2,1′-cyclopropan]-5-one)]", "values": [
      {"measurement": "EC50", "setting": "A375 cells", "result": 0.398, "unit": "nM"},
      {"measurement": "Emax", "setting": "A375 cells", "result": 80.3, "unit": "%"},
      {"measurement": "EC50", "setting": "Calu-6 cells", "result": 0.126, "unit": "nM"},
      {"measurement": "Emax", "setting": "Calu-6 cells", "result": 89.8, "unit": "%"}
    ]},
    {"smiles": "COc1cc2c(cc1OC/C=C/CCOc1cc3c(cc1OC)C(=O)N1CC4(CC4)C[C@H]1C=N3)N=C[C@@H]1CC3(CC3)CN1C2=O", "note": "[Compound 1-19, (11aS,11a″S)-8,8″-(((E)-pent-2-ene-1,5-diyl)bis(oxy))bis(7-methoxy-1,11a-dihydro-3H,5H-spiro[benzo[e]pyrrolo[1,2-a][1,4]diazepine-2,1′-cyclopropan]-5-one)]", "values": [
      {"measurement": "EC50", "setting": "A375 cells", "result": 0.165, "unit": "nM"},
      {"measurement": "Emax", "setting": "A375 cells", "result": 88.7, "unit": "%"},
      {"measurement": "EC50", "setting": "Calu-6 cells", "result": 0.052, "unit": "nM"},
      {"measurement": "Emax", "setting": "Calu-6 cells", "result": 90.6, "unit": "%"}
    ]},
    {"smiles": "COc1cc2c(cc1OCCCCCOc1cc3c(cc1OC)C(=O)N1Cc4ccccc4C[C@H]1C=N3)N=C[C@@H]1CC3(CCN1C2=O)CC3", "note": "[Compound 1-20, (S)-2-methoxy-3-((5-(((S)-2-methoxy-12-oxo-6a,9,10,12-tetrahydro-7H-spiro[benzo[e]pyrido[1,2-a][1,4]diazepine-8,1′-cyclopropan]-3-yl)oxy)pentyl)oxy)-7,12-dihydrobenzo[5,6][1,4]diazepino[1,2-b]isoquinolin-14(6aH)-one]", "values": [
      {"measurement": "EC50", "setting": "A375 cells", "result": 0.064, "unit": "nM"},
      {"measurement": "Emax", "setting": "A375 cells", "result": 95.9, "unit": "%"},
      {"measurement": "EC50", "setting": "Calu-6 cells", "result": 0.016, "unit": "nM"},
      {"measurement": "Emax", "setting": "Calu-6 cells", "result": 98.3, "unit": "%"}
    ]},
    {"smiles": "C=C1C[C@H]2C=Nc3cc(OCCNCCOc4cc5c(cc4OC)C(=O)N4CC(=C)C[C@H]4C=N5)c(OC)cc3C(=O)N2C1", "note": "[Compound 1-21, (11aS,11a'S)-8,8′-((azanediylbis(ethane-2,1-diyl))bis(oxy))bis(7-methoxy-2-methylene-1,2,3,11a-tetrahydro-5H-benzo[e]pyrrolo[1,2-a][1,4]diazepin-5-one)]", "values": [
      {"measurement": "EC50", "setting": "A375 cells", "result": 4.2, "unit": "nM"},
      {"measurement": "Emax", "setting": "A375 cells", "result": 97.8, "unit": "%"},
      {"measurement": "EC50", "setting": "Calu-6 cells", "result": 1.2, "unit": "nM"},
      {"measurement": "Emax", "setting": "Calu-6 cells", "result": 99.3, "unit": "%"}
    ]},
    {"smiles": "C=C1C[C@H]2C=Nc3cc(OCCN(C)CCOc4cc5c(cc4OC)C(=O)N4CC(=C)C[C@H]4C=N5)c(OC)cc3C(=O)N2C1", "note": "[Compound 1-22, (11aS,11a′S)-8,8′-(((methylazanediyl)bis(ethane-2,1-diyl))bis(oxy))bis(7-methoxy-2-methylene-1,2,3,11a-tetrahydro-5H-benzo[e]pyrrolo[1,2-a][1,4]diazepin-5-one)]", "values": [
      {"measurement": "EC50", "setting": "A375 cells", "result": 5.5, "unit": "nM"},
      {"measurement": "Emax", "setting": "A375 cells", "result": 97.3, "unit": "%"},
      {"measurement": "EC50", "setting": "Calu-6 cells", "result": 1.3, "unit": "nM"},
      {"measurement": "Emax", "setting": "Calu-6 cells", "result": 99.2, "unit": "%"}
    ]},
    {"smiles": "COc1cc2c(cc1OCCCCCOc1cc3c(cc1OC)C(=O)N1C=C(C)C[C@H]1C=N3)N=C[C@@H]1CC(C)=CN1C2=O", "note": "[Ref-1-1, reference compound]", "values": [
      {"measurement": "A375 Emax (%)", "setting": "A375 cells", "result": "99.9% and 99.6%"},
      {"measurement": "Emax", "setting": "A375 cells", "result": 99.8, "unit": "%"},
      {"measurement": "Calu-6 Emax (%)", "setting": "Calu-6 cells", "result": "99.8% and 99.3% and 93.1%"},
      {"measurement": "Emax", "setting": "Calu-6 cells", "result": 99.5, "unit": "%"}
    ]}
  ]
}
